Reference: patent US11654102B2, “Cosmetic composition comprising vetiver root extract” (GIVAUDAN SA, priority 2018, dated 2023)

Test: Solubility of zizanoic acid in water
Type: physicochemical
Conditions: in presence of the other substances present in the extract

In the case of `C=C1[C@H]2CC[C@H](C(=O)O)[C@@]23CC[C@H](C3)C1(C)C` [zizanoic acid], the “solubility of zizanoic acid in water” value is reported as “improved”.
